Results taken from patent publication US9359367B2, “Tetrahydroquinazolinone derivatives as PARP inhibitors” (Lupin Limited, priority 2012, dated 2016).

Target: T1, PARP1 (Homo sapiens, UniProt P09874)
T1 construct: purchased BPS Bioscience
Experiment: PARP1 Biochemical Assay (BPS Bioscience kit, chemiluminescence)
Settings: histone-coated plate, biotinilated NAD+, 25° C. for 60 min, luminescence, read-out: PARP 1 inhibition IC50
How it was run: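 Human PARP1 (25–75 ng/well) with activated DNA was incubated with compound on histone-coated wells. Biotinylated NAD+ was added and the reaction ran 60 min at 25 °C. Ribosylation was detected by streptavidin-HRP chemiluminescence, % inhibition was normalised to enzyme-free and uninhibited controls, and IC50 was fitted from % inhibition versus concentration.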

T1 sequence (P09874 whole entry): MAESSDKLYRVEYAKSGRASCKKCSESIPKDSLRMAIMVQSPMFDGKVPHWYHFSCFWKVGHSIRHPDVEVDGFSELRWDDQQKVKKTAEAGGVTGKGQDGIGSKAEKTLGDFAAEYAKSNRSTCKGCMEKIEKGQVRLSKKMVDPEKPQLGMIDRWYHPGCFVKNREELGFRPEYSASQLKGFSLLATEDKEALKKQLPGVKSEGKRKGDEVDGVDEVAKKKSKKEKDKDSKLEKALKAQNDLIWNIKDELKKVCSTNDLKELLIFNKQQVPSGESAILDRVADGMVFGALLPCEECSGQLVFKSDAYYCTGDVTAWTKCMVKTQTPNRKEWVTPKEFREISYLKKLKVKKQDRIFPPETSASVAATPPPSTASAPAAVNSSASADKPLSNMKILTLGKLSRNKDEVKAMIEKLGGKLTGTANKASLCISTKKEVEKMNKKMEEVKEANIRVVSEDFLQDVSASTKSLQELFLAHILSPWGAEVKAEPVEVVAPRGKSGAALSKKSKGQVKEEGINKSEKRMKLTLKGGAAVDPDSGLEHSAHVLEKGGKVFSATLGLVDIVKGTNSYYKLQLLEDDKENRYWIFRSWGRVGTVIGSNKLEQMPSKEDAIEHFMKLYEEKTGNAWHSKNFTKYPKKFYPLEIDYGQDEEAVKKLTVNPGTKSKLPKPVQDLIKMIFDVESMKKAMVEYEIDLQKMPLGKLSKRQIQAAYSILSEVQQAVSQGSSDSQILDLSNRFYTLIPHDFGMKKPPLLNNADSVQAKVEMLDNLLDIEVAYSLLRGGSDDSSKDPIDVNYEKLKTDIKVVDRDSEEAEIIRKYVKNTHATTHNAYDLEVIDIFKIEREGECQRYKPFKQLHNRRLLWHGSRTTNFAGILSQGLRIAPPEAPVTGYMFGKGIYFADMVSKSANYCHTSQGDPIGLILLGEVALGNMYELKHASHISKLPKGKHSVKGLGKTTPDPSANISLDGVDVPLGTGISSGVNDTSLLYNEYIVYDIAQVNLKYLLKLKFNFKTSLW

Row | Compound | IC50 [nM]
1 | CC(C)(/C=C/c1nc2c(c(=O)[nH]1)CC1(CC2)CC1)N1CCN(c2ccc(F)cc2)CC1 [Compound 31, (E)-2′-(3-(4-(4-fluorophenyl)piperazin-1-yl)-3-methylbut-1-en-1-yl)-7′,8′-dihydro-3′H-spiro[cyclopropane-1,6′-quinazolin]-4′(5′H)-one] | 5000 to 500000
2 | CNC(=O)c1csc(N2CCN([C@H]3C=C(c4nc5c(c(=O)[nH]4)CC4(CC5)CC4)CC3)CC2)n1 [Compound 105, (R)—N-methyl-2-(4-(3-(4′-oxo-4′,5′,7′,8′-tetrahydro-3′H-spiro[cyclopropane-1,6′-quinazolin]-2′-yl)cyclopent-2-en-1-yl)piperazin-1-yl)thiazole-4-carboxamide] | 501 to 5000
3 | O=c1[nH]c(C2=CC(N3C4CCC3CN(c3ccc(Cl)cc3)C4)CC2)nc2c1CC1(CC2)CC1 (stereo not drawn) [Compound 159, 2′-(3-(3-(4-chlorophenyl)-3,8-diazabicyclo[3.2.1]octan-8-yl)cyclopent-1-en-1-yl)-7′,8′-dihydro-3′H-spiro[cyclopropane-1,6′-quinazolin]-4′(5′H)-one] | 5000 to 500000
4 | O=c1[nH]c([C@@H]2CC[C@@H](N3CCN(c4ccc(Cl)cc4)CC3)C2)nc2c1CC1(CC2)CC1 [Compound 121, 2′-((1R,3R)-3-(4-(4-chlorophenyl)piperazin-1-yl)cyclopentyl)-7′,8′-dihydro-3′H-spiro[cyclopropane-1,6′-quinazolin]-4′(5′H)-one] | 5000 to 500000
5 | O=C(NC1CC1)c1ccc(N2CCN(C3C=C(c4nc5c(c(=O)[nH]4)CC4(CC5)CC4)CC3)CC2)cc1 (stereo not drawn) [Compound 44, N-cyclopropyl-4-(4-(3-(4′-oxo-4′,5′,7′,8′-tetrahydro-3′H-spiro[cyclopropane-1,6′-quinazolin]-2′-yl)cyclopent-2-en-1-yl)piperazin-1-yl)benzamide] | 1 to 500
6 | O=c1[nH]c(CCCN2CCN(c3ccc(F)cc3)CC2)nc2c1CC1CC1C2 (stereo not drawn) [Compound 24, 2-(3-(4-(4-fluorophenyl)piperazin-1-yl)propyl)-5a,6,6a,7-tetrahydro-3H-cyclopropa[g]quinazolin-4(5H)-one] | 1 to 500
7 | O=c1[nH]c(C2=C[C@H](N3CCN(c4ccc(Cl)cn4)CC3)CC2)nc2c1CC1(CC2)CC1 [Compound 57, (R)-2′-(3-(4-(5-chloropyridin-2-yl)piperazin-1-yl)cyclopent-1-en-1-yl)-7′,8′-dihydro-3′H-spiro[cyclopropane-1,6′-quinazolin]-4′(5′H)-one] | 1 to 500
8 | Cc1cc(F)ccc1N1CCN([C@H]2C=C(c3nc4c(c(=O)[nH]3)CC3(CC4)CC3)CC2)CC1 [Compound 95, (R)-2′-(3-(4-(4-fluoro-2-methylphenyl)piperazin-1-yl)cyclopent-1-en-1-yl)-7′,8′-dihydro-3′H-spiro[cyclopropane-1,6′-quinazolin]-4′(5′H)-one] | 1 to 500
9 | O=c1[nH]c(C2=C[C@H](N3CCN(c4ccsc4)CC3)CC2)nc2c1CC1(CC2)CC1 [Compound 91, (R)-2′-(3-(4-(thiophen-3-yl)piperazin-1-yl)cyclopent-1-en-1-yl)-7′,8′-dihydro-3′H-spiro[cyclopropane-1,6′-quinazolin]-4′(5′H)-one] | 1 to 500
10 | Cc1cc(N2CCN([C@H]3C=C(c4nc5c(c(=O)[nH]4)CC4(CC5)CC4)CC3)CC2)ncc1F [Compound 137, (R)-2′-(3-(4-(5-fluoro-4-methylpyridin-2-yl)piperazin-1-yl)cyclopent-1-en-1-yl)-7′,8′-dihydro-3′H-spiro[cyclopropane-1,6′-quinazolin]-4′(5′H)-one] | 1 to 500
11 | O=c1[nH]c(CCCN2CCN(c3ccccc3Cl)CC2)nc2c1CC1(CC2)CC1 [Compound 14, 2′-(3-(4-(2-chlorophenyl)piperazin-1-yl)propyl)-7′,8′-dihydro-3′H-spiro[cyclopropane-1,6′-quinazolin]-4′(5′H)-one] | 1 to 500
12 | O=c1[nH]c(C2=C[C@@H](N3CCN(c4ccc(F)cc4)CC3)CC2)nc2c1CCCC21CC1 [Compound 49, (S)-2′-(3-(4-(4-fluorophenyl)piperazin-1-yl)cyclopent-1-en-1-yl)-6′,7′-dihydro-3′H-spiro[cyclopropane-1,8′-quinazolin]-4′(5′H)-one] | 1 to 500
